The target of data set [1] is Glutamate carboxypeptidase 2 (Homo sapiens, UniProt Q04609). The data set can be described thus: Inhibition of PSMA in human LNCaP cell extracts using NAAG as substrate by amplex red reagent based assay. In kind it is cell-free.
Data set [2] is described as follows: Drug uptake in PSMA overexpressing human LNCaP cells at 4 to 40 nM by flow cytometry. As to conditions: 0.04 µM, dose 4-40 nM; call rule not given here. In kind it is ADME, cell-based. For orientation: A flow cytometer gives signals particle by particle.

One may read the IC50 as the concentration that gives 50% inhibition. A high value points to lower potency.

Glutamate carboxypeptidase 2, sequence (Q04609 whole entry): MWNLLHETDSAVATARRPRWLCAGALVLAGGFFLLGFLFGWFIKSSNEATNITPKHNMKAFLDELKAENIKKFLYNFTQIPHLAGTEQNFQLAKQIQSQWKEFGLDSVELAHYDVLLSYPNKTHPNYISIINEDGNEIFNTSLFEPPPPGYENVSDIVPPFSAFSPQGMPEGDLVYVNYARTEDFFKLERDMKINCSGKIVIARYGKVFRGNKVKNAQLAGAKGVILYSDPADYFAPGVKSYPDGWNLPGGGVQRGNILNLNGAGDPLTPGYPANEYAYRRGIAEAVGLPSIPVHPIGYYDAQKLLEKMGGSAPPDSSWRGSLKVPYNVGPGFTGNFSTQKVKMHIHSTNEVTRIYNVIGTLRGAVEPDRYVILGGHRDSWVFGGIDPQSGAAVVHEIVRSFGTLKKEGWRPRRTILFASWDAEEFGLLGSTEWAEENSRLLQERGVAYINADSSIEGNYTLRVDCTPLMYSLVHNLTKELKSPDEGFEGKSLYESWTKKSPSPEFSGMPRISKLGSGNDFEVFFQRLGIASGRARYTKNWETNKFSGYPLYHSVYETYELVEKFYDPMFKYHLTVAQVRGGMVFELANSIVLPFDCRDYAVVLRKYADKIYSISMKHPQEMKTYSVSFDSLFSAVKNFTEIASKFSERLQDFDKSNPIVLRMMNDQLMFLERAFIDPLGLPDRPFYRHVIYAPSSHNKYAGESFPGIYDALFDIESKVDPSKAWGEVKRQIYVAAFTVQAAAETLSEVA

Turning to `[N-]=[N+]=NCCCNC(=O)[C@H](Cc1ccccc1)NC(=O)[C@H](Cc1ccccc1)NC(=O)CCC(=O)NCCCCCC(=O)N(CCCC[C@H](NC(=O)N[C@@H](CCC(=O)O)C(=O)O)C(=O)O)Cc1cccc([N+](=O)[O-])c1`, 23 nM corresponded to half-maximal inhibition in data set [1] (IC50).

As for `CCOc1ccc(CN(CCCC[C@H](NC(=O)N[C@@H](CCC(=O)O)C(=O)O)C(=O)O)C(=O)CCCCCNC(=O)CCC(=O)N[C@@H](Cc2ccccc2)C(=O)N[C@@H](Cc2ccccc2)C(=O)NCCCN=[N+]=[N-])cc1`, the IC50 in data set [1] stood at 51 nM. In data set [1], `[N-]=[N+]=NCCCNC(=O)[C@H](Cc1ccccc1)NC(=O)[C@H](Cc1ccccc1)NC(=O)CCC(=O)NCCCCCC(=O)N(CCCC[C@H](NC(=O)N[C@@H](CCC(=O)O)C(=O)O)C(=O)O)Cc1ccccc1[N+](=O)[O-]` displayed an IC50 of 16 nM.

In the case of `[N-]=[N+]=NCCCNC(=O)[C@H](Cc1ccccc1)NC(=O)[C@H](Cc1ccccc1)NC(=O)CCC(=O)NCCCCCC(=O)N(CCCC[C@H](NC(=O)N[C@@H](CCC(=O)O)C(=O)O)C(=O)O)Cc1ccc([N+](=O)[O-])cc1`, 35 nM corresponded to half-maximal inhibition in data set [1] (IC50). Compared with the last compound, the IC50 is about 2.2-fold higher. On to `[N-]=[N+]=NCCCNC(=O)[C@H](Cc1ccccc1)NC(=O)[C@H](Cc1ccccc1)NC(=O)CCC(=O)NCCCCCC(=O)N(CCCC[C@H](NC(=O)N[C@@H](CCC(=O)O)C(=O)O)C(=O)O)Cc1ccc(O)cc1`, for which the IC50 in data set [1] turned out to be 24 nM. As for `CN1/C(=C/C=C/C=C/C2=[N+](CCCCCC(=O)NCc3cn(CCCNC(=O)[C@H](Cc4ccc(O)cc4)NC(=O)[C@H](Cc4ccccc4)NC(=O)CCC(=O)NCCCCCC(=O)N(CCCC[C@H](NC(=O)N[C@@H](CCC(=O)O)C(=O)O)C(=O)O)Cc4cccc(Cl)c4)nn3)c3ccc(S(=O)(=O)[O-])cc3C2(C)C)C(C)(C)c2cc(S(=O)(=O)O)ccc21`, the Drug uptake entry in data set [2] is on record as “Active”. For `COc1ccc(CN(CCCC[C@H](NC(=O)N[C@@H](CCC(=O)O)C(=O)O)C(=O)O)C(=O)CCCCCNC(=O)CCC(=O)N[C@@H](Cc2ccccc2)C(=O)N[C@@H](Cc2ccccc2)C(=O)NCCCN=[N+]=[N-])c(OC)c1`, the concentration for half-maximal inhibition (IC50) in data set [1] worked out at 23 nM. On the same count and under the same terms, as for `[N-]=[N+]=NCCCNC(=O)[C@H](Cc1ccc(O)cc1)NC(=O)[C@H](Cc1ccccc1)NC(=O)CCC(=O)NCCCCCC(=O)N(CCCC[C@H](NC(=O)N[C@@H](CCC(=O)O)C(=O)O)C(=O)O)Cc1ccccc1[N+](=O)[O-]`, the figure is 101 nM; as for `[N-]=[N+]=NCCCNC(=O)[C@H](Cc1ccc(O)c([N+](=O)[O-])c1)NC(=O)[C@H](Cc1ccccc1)NC(=O)CCC(=O)NCCCCCC(=O)N(CCCC[C@H](NC(=O)N[C@@H](CCC(=O)O)C(=O)O)C(=O)O)Cc1ccc(C(=O)O)cc1`, 2.1 nM. Still for that read-out and setting: in the case of `COc1ccccc1CN(CCCC[C@H](NC(=O)N[C@@H](CCC(=O)O)C(=O)O)C(=O)O)C(=O)CCCCCNC(=O)CCC(=O)N[C@@H](Cc1ccccc1)C(=O)N[C@@H](Cc1ccccc1)C(=O)NCCCN=[N+]=[N-]` it was 38 nM. With `CN1/C(=C/C=C/C=C/C2=[N+](CCCCCC(=O)NCc3cn(CCCNC(=O)[C@H](Cc4ccccc4)NC(=O)[C@H](Cc4ccccc4)NC(=O)CCC(=O)NCCCCCC(=O)N(CCCC[C@H](NC(=O)N[C@@H](CCC(=O)O)C(=O)O)C(=O)O)Cc4ccccc4[N+](=O)[O-])nn3)c3ccc(S(=O)(=O)[O-])cc3C2(C)C)C(C)(C)c2cc(S(=O)(=O)O)ccc21`, the Drug uptake result in data set [2] is recorded as “Active”. In the case of `COc1ccc(CN(CCCC[C@H](NC(=O)N[C@@H](CCC(=O)O)C(=O)O)C(=O)O)C(=O)CCCCCNC(=O)CCC(=O)N[C@@H](Cc2ccccc2)C(=O)N[C@@H](Cc2ccccc2)C(=O)NCCCN=[N+]=[N-])cc1`, the half-inhibitory concentration (IC50) in data set [1] is 112 nM. As for `CN1/C(=C/C=C/C=C/C2=[N+](CCCCCC(=O)NCc3cn(CCCNC(=O)[C@H](Cc4ccccc4)NC(=O)[C@H](Cc4ccccc4)NC(=O)CCC(=O)NCCCCCC(=O)N(CCCC[C@H](NC(=O)N[C@@H](CCC(=O)O)C(=O)O)C(=O)O)Cc4ccc(C(=O)O)cc4)nn3)c3ccc(S(=O)(=O)[O-])cc3C2(C)C)C(C)(C)c2cc(S(=O)(=O)O)ccc21`, in data set [2], the Drug uptake result is on record as “Active”. `[N-]=[N+]=NCCCNC(=O)[C@H](Cc1ccccc1)NC(=O)[C@H](Cc1ccccc1)NC(=O)CCC(=O)NCCCCCC(=O)N(CCCC[C@H](NC(=O)N[C@@H](CCC(=O)O)C(=O)O)C(=O)O)Cc1ccc(C(=O)O)cc1`: the midpoint of inhibition in data set [1], the IC50, lay at 7 nM. In data set [1], `[N-]=[N+]=NCCCNC(=O)[C@H](Cc1ccc(O)cc1)NC(=O)[C@H](Cc1ccccc1)NC(=O)CCC(=O)NCCCCCC(=O)N(CCCC[C@H](NC(=O)N[C@@H](CCC(=O)O)C(=O)O)C(=O)O)Cc1ccc(C(=O)O)cc1` displayed an IC50 of 19 nM. Compared with the last compound, the IC50 is about 2.7-fold higher. Compound `[N-]=[N+]=NCCCNC(=O)[C@H](Cc1ccc(O)c([N+](=O)[O-])c1)NC(=O)[C@H](Cc1ccccc1)NC(=O)CCC(=O)NCCCCCC(=O)N(CCCC[C@H](NC(=O)N[C@@H](CCC(=O)O)C(=O)O)C(=O)O)Cc1cccc(Cl)c1` displayed a half-inhibitory concentration (IC50) in data set [1] of 1.5 nM. The same measure, in the same setting: in the case of `COc1ccc(CN(CCCC[C@H](NC(=O)N[C@@H](CCC(=O)O)C(=O)O)C(=O)O)C(=O)CCCCCNC(=O)CCC(=O)N[C@@H](Cc2ccccc2)C(=O)N[C@@H](Cc2ccccc2)C(=O)NCCCN=[N+]=[N-])cc1OC` it was 88 nM.

The values are drawn from ChEMBL document CHEMBL5113431, “Synthesis and initial in vitro evaluation of PSMA-targeting ligands with a modified aromatic moiety at the lysine ε-nitrogen atom” (Bioorg Med Chem Lett, 2022).
